Six compounds from ChEMBL document CHEMBL4477225, “Development of a cell viability assay to assess drug metabolite structure-toxicity relationships” (Bioorg Med Chem Lett, 2016) can be followed below.

Holding throughout (type): ADME, cell-based
Settings in all cases: recombinant enzyme

In data set [1] the target is T1, Cytochrome P450 3A4 (Homo sapiens, UniProt P08684). Kind of data set: Drug activation in human Hep3B cells assessed as human CYP3A4-mediated drug metabolism-induced cytotoxicity measured as decrease in cell viability at 53 uM pre-incubated with BSO for 18 hrs followed by incubation with compound for 3 hrs in presence of NADPH measured after 24 hrs in absence of compound, CYP3A4 and NADPH by cell titer-glo luminescence assay relative to BSO alone.

Data set [2] deals with T2, Cytochrome P450 2D6 (Homo sapiens, UniProt P10635). Kind of data set: Drug activation in human Hep3B cells assessed as human CYP2D6-mediated drug metabolism-induced cytotoxicity measured as decrease in cell viability at 5.8 uM pre-incubated with BSO for 18 hrs followed by incubation with compound for 3 hrs in presence of NADPH measured after 24 hrs in absence of compound, CYP3A4 and NADPH by cell titer-glo luminescence assay relative to BSO alone.

Data set [3] addresses T3, Cytochrome P450 2C9 (Homo sapiens, UniProt P11712). Briefly: Drug activation in human Hep3B cells assessed as human CYP2C9-mediated drug metabolism-induced cytotoxicity measured as decrease in cell viability at 47.3 uM pre-incubated with BSO for 18 hrs followed by incubation with compound for 3 hrs in presence of NADPH measured after 24 hrs in absence of compound, CYP3A4 and NADPH by cell titer-glo luminescence assay relative to BSO alone.

Data set [4] deals with T1, Cytochrome P450 3A4. Kind of data set: Drug activation in human Hep3B cells assessed as human CYP3A4-mediated drug metabolism-induced cytotoxicity measured as decrease in cell viability at 14 uM pre-incubated with BSO for 18 hrs followed by incubation with compound for 3 hrs in presence of NADPH measured after 24 hrs in absence of compound, CYP3A4 and NADPH by cell titer-glo luminescence assay relative to BSO alone.

Data set [5] addresses T2, Cytochrome P450 2D6. Briefly: Drug activation in human Hep3B cells assessed as human CYP2D6-mediated drug metabolism-induced cytotoxicity measured as decrease in cell viability at 31.6 uM pre-incubated with BSO for 18 hrs followed by incubation with compound for 3 hrs in presence of NADPH measured after 24 hrs in absence of compound, CYP3A4 and NADPH by cell titer-glo luminescence assay relative to BSO alone.

Data set [6] addresses T3, Cytochrome P450 2C9. Briefly: Drug activation in human Hep3B cells assessed as human CYP2C9-mediated drug metabolism-induced cytotoxicity measured as decrease in cell viability at 224.2 uM pre-incubated with BSO for 18 hrs followed by incubation with compound for 3 hrs in presence of NADPH measured after 24 hrs in absence of compound, CYP3A4 and NADPH by cell titer-glo luminescence assay relative to BSO alone.

Data set [7] has as its target T1, Cytochrome P450 3A4. Briefly: Drug activation in human Hep3B cells assessed as human CYP3A4-mediated drug metabolism-induced cytotoxicity measured as decrease in cell viability at 70.3 uM pre-incubated with BSO for 18 hrs followed by incubation with compound for 3 hrs in presence of NADPH measured after 24 hrs in absence of compound, CYP3A4 and NADPH by cell titer-glo luminescence assay relative to BSO alone.

The target of data set [8] is T2, Cytochrome P450 2D6. Briefly: Drug activation in human Hep3B cells assessed as human CYP2D6-mediated drug metabolism-induced cytotoxicity measured as decrease in cell viability at 52.1 uM pre-incubated with BSO for 18 hrs followed by incubation with compound for 3 hrs in presence of NADPH measured after 24 hrs in absence of compound, CYP3A4 and NADPH by cell titer-glo luminescence assay relative to BSO alone.

Data set [9] addresses T3, Cytochrome P450 2C9. Briefly: Drug activation in human Hep3B cells assessed as human CYP2C9-mediated drug metabolism-induced cytotoxicity measured as decrease in cell viability at 88.3 uM pre-incubated with BSO for 18 hrs followed by incubation with compound for 3 hrs in presence of NADPH measured after 24 hrs in absence of compound, CYP3A4 and NADPH by cell titer-glo luminescence assay relative to BSO alone.

Data set [10] addresses T3, Cytochrome P450 2C9. Briefly: Drug activation in human Hep3B cells assessed as human CYP2C9-mediated drug metabolism-induced cytotoxicity measured as decrease in cell viability at 34 uM pre-incubated with BSO for 18 hrs followed by incubation with compound for 3 hrs in presence of NADPH measured after 24 hrs in absence of compound, CYP3A4 and NADPH by cell titer-glo luminescence assay relative to BSO alone.

In data set [11] the target is T1, Cytochrome P450 3A4. Kind of data set: Drug activation in human Hep3B cells assessed as human CYP3A4-mediated drug metabolism-induced cytotoxicity measured as decrease in cell viability at 53.7 uM pre-incubated with BSO for 18 hrs followed by incubation with compound for 3 hrs in presence of NADPH measured after 24 hrs in absence of compound, CYP3A4 and NADPH by cell titer-glo luminescence assay relative to BSO alone.

Data set [12] has as its target T2, Cytochrome P450 2D6. Kind of data set: Drug activation in human Hep3B cells assessed as human CYP2D6-mediated drug metabolism-induced cytotoxicity measured as decrease in cell viability at 2.1 uM pre-incubated with BSO for 18 hrs followed by incubation with compound for 3 hrs in presence of NADPH measured after 24 hrs in absence of compound, CYP3A4 and NADPH by cell titer-glo luminescence assay relative to BSO alone.

Data set [13] addresses T3, Cytochrome P450 2C9. Kind of data set: Drug activation in human Hep3B cells assessed as human CYP2C9-mediated drug metabolism-induced cytotoxicity measured as decrease in cell viability at 452.5 uM pre-incubated with BSO for 18 hrs followed by incubation with compound for 3 hrs in presence of NADPH measured after 24 hrs in absence of compound, CYP3A4 and NADPH by cell titer-glo luminescence assay relative to BSO alone.

Data set [14] concerns the target T1, Cytochrome P450 3A4. Kind of data set: Drug activation in human Hep3B cells assessed as human CYP3A4-mediated drug metabolism-induced cytotoxicity measured as decrease in cell viability at 16.3 uM pre-incubated with BSO for 18 hrs followed by incubation with compound for 3 hrs in presence of NADPH measured after 24 hrs in absence of compound, CYP3A4 and NADPH by cell titer-glo luminescence assay relative to BSO alone.

The target in data set [15] is T2, Cytochrome P450 2D6. Briefly: Drug activation in human Hep3B cells assessed as human CYP2D6-mediated drug metabolism-induced cytotoxicity measured as decrease in cell viability at 15.6 uM pre-incubated with BSO for 18 hrs followed by incubation with compound for 3 hrs in presence of NADPH measured after 24 hrs in absence of compound, CYP3A4 and NADPH by cell titer-glo luminescence assay relative to BSO alone.

Data set [16] addresses T3, Cytochrome P450 2C9. Briefly: Drug activation in human Hep3B cells assessed as human CYP2C9-mediated drug metabolism-induced cytotoxicity measured as decrease in cell viability at 17.1 uM pre-incubated with BSO for 18 hrs followed by incubation with compound for 3 hrs in presence of NADPH measured after 24 hrs in absence of compound, CYP3A4 and NADPH by cell titer-glo luminescence assay relative to BSO alone.

T1 sequence (P08684 whole entry): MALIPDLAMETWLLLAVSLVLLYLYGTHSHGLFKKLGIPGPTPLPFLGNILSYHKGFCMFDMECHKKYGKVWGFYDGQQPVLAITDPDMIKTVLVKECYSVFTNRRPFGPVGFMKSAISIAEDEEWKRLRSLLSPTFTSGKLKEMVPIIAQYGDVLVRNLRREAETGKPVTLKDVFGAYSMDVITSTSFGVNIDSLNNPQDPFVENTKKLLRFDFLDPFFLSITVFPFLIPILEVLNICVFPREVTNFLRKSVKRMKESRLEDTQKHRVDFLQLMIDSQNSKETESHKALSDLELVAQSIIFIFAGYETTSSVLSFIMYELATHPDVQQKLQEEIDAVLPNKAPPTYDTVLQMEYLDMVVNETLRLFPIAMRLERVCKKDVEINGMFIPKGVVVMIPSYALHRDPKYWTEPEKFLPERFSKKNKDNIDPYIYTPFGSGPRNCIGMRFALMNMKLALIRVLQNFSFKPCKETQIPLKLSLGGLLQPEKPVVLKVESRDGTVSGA
T2 sequence (P10635 whole entry): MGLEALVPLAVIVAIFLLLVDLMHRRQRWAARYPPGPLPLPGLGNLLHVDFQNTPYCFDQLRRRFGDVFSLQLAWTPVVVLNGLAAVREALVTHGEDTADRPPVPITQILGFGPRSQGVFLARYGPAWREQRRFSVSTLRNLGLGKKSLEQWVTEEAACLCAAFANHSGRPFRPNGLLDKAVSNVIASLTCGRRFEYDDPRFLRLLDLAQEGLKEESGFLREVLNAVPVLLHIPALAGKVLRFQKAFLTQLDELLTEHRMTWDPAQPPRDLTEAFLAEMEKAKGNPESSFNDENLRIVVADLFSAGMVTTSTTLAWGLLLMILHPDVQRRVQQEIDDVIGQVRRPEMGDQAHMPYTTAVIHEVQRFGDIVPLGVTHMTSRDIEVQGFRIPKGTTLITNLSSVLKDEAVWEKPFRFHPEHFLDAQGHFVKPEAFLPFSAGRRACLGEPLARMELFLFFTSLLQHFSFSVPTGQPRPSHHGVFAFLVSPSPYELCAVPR
T3 sequence (P11712 whole entry): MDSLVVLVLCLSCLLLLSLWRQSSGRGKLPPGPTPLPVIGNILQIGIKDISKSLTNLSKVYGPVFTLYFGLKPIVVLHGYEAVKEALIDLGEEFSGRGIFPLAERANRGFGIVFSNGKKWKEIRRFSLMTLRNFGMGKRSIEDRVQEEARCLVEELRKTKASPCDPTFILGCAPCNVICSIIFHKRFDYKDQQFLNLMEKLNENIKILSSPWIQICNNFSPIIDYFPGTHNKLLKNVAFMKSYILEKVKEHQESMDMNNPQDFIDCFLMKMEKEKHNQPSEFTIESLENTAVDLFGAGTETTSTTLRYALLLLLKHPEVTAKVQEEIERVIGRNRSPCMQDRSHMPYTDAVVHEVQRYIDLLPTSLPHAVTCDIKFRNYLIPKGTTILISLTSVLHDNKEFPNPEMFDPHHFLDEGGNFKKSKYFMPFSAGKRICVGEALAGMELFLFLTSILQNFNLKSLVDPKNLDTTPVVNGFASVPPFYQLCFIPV

Take `CCc1oc2ccccc2c1C(=O)c1ccc(O)cc1` [BENZARONE]: the results for the “fold change (FC)” value at Cytochrome P450 3A4 [1], at Cytochrome P450 2D6 [2] and on Cytochrome P450 2C9 [3] were 0.8, 7.5 and 0.9, respectively.

Regarding `CC(O)(CS(=O)(=O)c1ccc(F)cc1)C(=O)Nc1ccc(C#N)c(C(F)(F)F)c1` (stereo unspecified) [BICALUTAMIDE], the “fold change (FC)” value on Cytochrome P450 3A4 [4] worked out at 1.7; at Cytochrome P450 2D6 [5], 0.7; at Cytochrome P450 2C9 [6], 0.1.

As to `C=CC[C@@H]1/C=C(\C)C[C@H](C)C[C@H](OC)[C@H]2O[C@@](O)(C(=O)C(=O)N3CCCC[C@H]3C(=O)O[C@H](/C(C)=C/[C@@H]3CC[C@@H](O)[C@H](OC)C3)[C@H](C)[C@@H](O)CC1=O)[C@H](C)C[C@@H]2OC` [TACROLIMUS ANHYDROUS], the “fold change (FC)” value on Cytochrome P450 3A4 [7] is 1.6; at Cytochrome P450 2D6 [8], 2.2; at Cytochrome P450 2C9 [9], 1.3.

Turning to `CC(=O)N1CCN(c2ccc(OCC3COC(Cn4ccnc4)(c4ccc(Cl)cc4Cl)O3)cc2)CC1` (stereo unspecified) [KETOCONAZOLE], at Cytochrome P450 2C9 [10], the “fold change (FC)” value is recorded as 1.4.

With `CC(C)NCC(O)COc1cccc2ccccc12` (stereo unspecified) [PROPRANOLOL], the “fold change (FC)” value stood at 4.7 at Cytochrome P450 3A4 [11], 120.7 on Cytochrome P450 2D6 [12] and 0.6 at Cytochrome P450 2C9 [13].

Take `CCc1oc2ccccc2c1C(=O)c1cc(I)c(O)c(I)c1` [BENZIODARONE]: the “fold change (FC)” value at Cytochrome P450 3A4 [14] stood at 2.2; at Cytochrome P450 2D6 [15], 2.3; on Cytochrome P450 2C9 [16] it was 2.1.
